According to US20080132505A1 (Glaxo Group Limited, priority 2004, published 2008):
pEC50: −log10 of the molar value. Where two headings read alike, the source gives them in different places.

Biological target: human cannabinoid CB2 receptor (Homo sapiens, UniProt P34972)
Test: Cannabinoid CB2 receptor agonist activity (yeast reporter assay, FDGlu fluorescence)
Assay type: cell-based
Conditions: for Emax: read-out: efficacy value (Emax relative to HU210) at the cloned human cannabinoid CB2 receptor
In short: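 S. cerevisiae MMY23 expressing human CB2 with a Gpa1/Gαi3 chimeric G-protein, grown 24 h at 30 °C with agonist (1% DMSO) in selective media containing 10 mM 3-aminotriazole and FDGlu, pH 7.0. Fluorescein fluorescence (485/535 nm) fitted by four-parameter curve; Emax and EMR relative to HU210.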

[1] = EC50 value at the cloned human cannabinoid CB2 receptor

Chain of human cannabinoid CB2 receptor (P34972 whole entry): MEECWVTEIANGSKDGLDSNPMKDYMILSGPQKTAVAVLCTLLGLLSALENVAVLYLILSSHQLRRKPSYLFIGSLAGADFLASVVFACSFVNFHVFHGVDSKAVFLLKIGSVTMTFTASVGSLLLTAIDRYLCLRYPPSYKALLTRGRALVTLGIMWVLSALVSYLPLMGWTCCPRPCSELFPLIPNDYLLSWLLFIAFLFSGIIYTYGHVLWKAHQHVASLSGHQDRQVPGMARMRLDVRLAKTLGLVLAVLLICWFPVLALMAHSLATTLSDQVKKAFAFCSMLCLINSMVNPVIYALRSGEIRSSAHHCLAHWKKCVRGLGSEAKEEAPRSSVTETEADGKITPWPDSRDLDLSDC

COc1cccc(Nc2ncc(C(=O)NCc3ccccc3)c(C(F)(F)F)n2)c1 [Example 295, 2-(3-Methoxy-phenylamino)-4-trifluoromethyl-pyrimidine-5-carboxylic acid benzylamide]
pEC50 [1]: 6.00 to 6.52 | Emax: > 50%

COc1ccccc1Nc1ncc(C(=O)N(C)Cc2ccccc2)c(C(F)(F)F)n1 [Example 296, 2-(2-Methoxy-phenylamino)-4-trifluoromethyl-pyrimidine-5-carboxylic acid N-benzyl-N-methyl-amide]
pEC50 (read-out: EC50 value at the cloned human cannabinoid CB2 receptor): 6.00 to 6.52

COc1cccc(Nc2ncc(C(=O)N(C)Cc3ccccc3)c(C(F)(F)F)n2)c1 [Example 297, 2-(3-Methoxy-phenylamino)-4-trifluoromethyl-pyrimidine-5-carboxylic acid N-benzyl-N-methyl-amide]
pEC50 [1]: 6.00 to 6.52 | Emax: > 50%

O=C(NCc1ccc(Cl)cc1)c1cnc(Nc2cccc(Cl)c2)nc1C(F)(F)F [Example 298, 2-(3-Chloro-phenylamino)-4-trifluoromethyl-pyrimidine-5-carboxylic acid 4-chloro-benzylamide]
pEC50 [1]: 6.00 to 6.52 | Emax: > 50%

CCN(Cc1ccccc1)C(=O)c1cnc(Nc2cccc(Cl)c2)nc1C(F)(F)F [Example 299, 2-(3-Chloro-phenylamino)-4-trifluoromethyl-pyrimidine-5-carboxylic acid N-benzyl-N-ethyl-amide]
pEC50 [1]: 6.00 to 6.52 | Emax: > 50%

O=C(NCc1ccccc1)c1cnc(Nc2cccc(Cl)c2Cl)nc1C(F)(F)F [Example 300, 2-(2,3-Dichloro-phenylamino)-4-trifluoromethyl-pyrimidine-5-carboxylic acid benzylamide]
pEC50 [1]: 6.00 to 6.52 | Emax: > 50%

CN(Cc1ccccc1)C(=O)c1cnc(Nc2cccc(F)c2)nc1C(F)(F)F [Example 301, 2-(3-Fluoro-phenylamino)-4-trifluoromethyl-pyrimidine-5-carboxylic acid N-benzyl-N-methyl-amide]
pEC50 [1]: 6.00 to 6.52 | Emax: > 50%

CC(C)Cc1ccc(CNC(=O)c2cnc(Nc3cccc(Cl)c3)nc2C(F)(F)F)cc1 [Example 302, 2-(3-Chloro-phenylamino)-4-trifluoromethyl-pyrimidine-5-carboxylic acid 4-isobutyl-benzylamide]
pEC50 [1]: 6.00 to 6.52 | Emax: > 50%

Cc1cc(CNC(=O)c2cnc(Nc3cccc(Cl)c3)nc2C(F)(F)F)ccn1 [Example 303, 2-(3-Chloro-phenylamino)-4-trifluoromethyl-pyrimidine-5-carboxylic acid (2-methyl-pyridin-4-ylmethyl)-amide]
pEC50 [1]: 6.00 to 6.52

Cc1cc(CNC(=O)c2cnc(Nc3cccc(Br)c3)nc2C(F)(F)F)ccn1 [Example 304, 2-(3-Bromo-phenylamino)-4-trifluoromethyl-pyrimidine-5-carboxylic acid (2-methyl-pyridin-4-ylmethyl)-amide]
pEC50 [1]: 6.00 to 6.52 | Emax: > 50%

CN(Cc1ccccc1)C(=O)c1cnc(Nc2ccccc2Cl)nc1C(F)(F)F [Example 305, 2-(2-Chloro-phenylamino)-4-trifluoromethyl-pyrimidine-5-carboxylic acid N-benzyl-N-methyl-amide]
pEC50 [1]: 6.00 to 6.52

N#Cc1ccc(CNC(=O)c2cnc(Nc3cccc(F)c3)nc2C(F)(F)F)cc1 [Example 306, 2-(3-Fluoro-phenylamino)-4-trifluoromethyl-pyrimidine-5-carboxylic acid N-(4-cyano-benzyl)amide]
pEC50 [1]: 6.00 to 6.52 | Emax: > 50%

O=C(NCc1ccc(F)c(F)c1)c1cnc(Nc2cccc(Cl)c2)nc1C(F)(F)F [Example 346, 2-(3-Chloro-phenylamino)-4-trifluoromethyl-pyrimidine-5-carboxylic acid 3,4-difluoro-benzylamide]
pEC50 [1]: 6.52 to 7.70

O=C(NCc1ccc(F)cc1)c1cnc(Nc2ccc(F)c(Cl)c2)nc1C(F)(F)F [Example 347, 2-(3-Chloro-4-fluoro-phenylamino)-4-trifluoromethyl-pyrimidine-5-carboxylic acid 4-fluoro-benzylamide]
pEC50 [1]: 6.52 to 7.70

O=C(NCc1ccc(F)cc1)c1cnc(Nc2cccc(Cl)c2F)nc1C(F)(F)F [Example 348, 2-(3-Chloro-2-fluoro-phenylamino)-4-trifluoromethyl-pyrimidine-5-carboxylic acid 4-fluoro-benzylamide]
pEC50 [1]: 6.52 to 7.70

O=C(NCc1ccc(F)cc1)c1cnc(Nc2cc(Cl)ccc2F)nc1C(F)(F)F [Example 349, 2-(5-Chloro-2-fluoro-phenylamino)-4-trifluoromethyl-pyrimidine-5-carboxylic acid 4-fluoro-benzylamide]
pEC50 [1]: 6.52 to 7.70

O=C(NCc1ccc(F)cc1)c1cnc(Nc2cc(F)cc(F)c2)nc1C(F)(F)F [Example 350, 2-(3,5-Difluoro-phenylamino)-4-trifluoromethyl-pyrimidine-5-carboxylic acid 4-fluoro-benzylamide]
pEC50 [1]: 6.52 to 7.70

N#Cc1ccc(Nc2ncc(C(=O)NCc3ccc(F)cc3)c(C(F)(F)F)n2)cc1Cl [Example 351, 2-(3-Chloro-4-cyano-phenylamino)-4-trifluoromethyl-pyrimidine-5-carboxylic acid 4-fluoro-benzylamide]
pEC50 [1]: 6.52 to 7.70 | Emax: > 50%

COc1cccc(Nc2ncc(C(=O)NCc3ccncc3)c(C(F)(F)F)n2)c1 [Example 352, 2-(3-Methoxy-phenylamino)-4-trifluoromethyl-pyrimidine-5-carboxylic acid (pyridin-4-ylmethyl)-amide]
pEC50 [1]: 6.52 to 7.70

O=C(NCc1ccnc(F)c1)c1cnc(Nc2cccc(Br)c2)nc1C(F)(F)F [Example 353, 2-(3-Bromo-phenylamino)-4-trifluoromethyl-pyrimidine-5-carboxylic acid (2-fluoro-pyridin-4-ylmethyl)-amide]
pEC50 [1]: 6.52 to 7.70

O=C(NCc1ccnc(F)c1)c1cnc(Nc2cccc(F)c2)nc1C(F)(F)F [Example 354, 2-(3-Fluoro-phenylamino)-4-trifluoromethyl-pyrimidine-5-carboxylic acid (2-fluoro-pyridin-4-ylmethyl)-amide]
pEC50 [1]: 6.52 to 7.70

O=C(NCc1ccnc(F)c1)c1cnc(Nc2cc(Cl)ccc2Cl)nc1C(F)(F)F [Example 355, 2-(2,5-Dichloro-phenylamino)-4-trifluoromethyl-pyrimidine-5-carboxylic acid (2-fluoro-pyridin-4-ylmethyl)-amide]
pEC50 [1]: 6.52 to 7.70

O=C(NCc1ccnc(F)c1)c1cnc(Nc2cc(Cl)cc(Cl)c2)nc1C(F)(F)F [Example 356, 2-(3,5-Dichloro-phenylamino)-4-trifluoromethyl-pyrimidine-5-carboxylic acid (2-fluoro-pyridin-4-ylmethyl)-amide]
pEC50 [1]: 6.52 to 7.70

O=C(NCc1ccnc(F)c1)c1cnc(Nc2ccc(Cl)c(Cl)c2)nc1C(F)(F)F [Example 357, 2-(3,4-Dichloro-phenylamino)-4-trifluoromethyl-pyrimidine-5-carboxylic acid (2-fluoro-pyridin-4-ylmethyl)-amide]
pEC50 [1]: 6.52 to 7.70

O=C(NCc1ccnc(F)c1)c1cnc(Nc2c(Cl)cccc2Cl)nc1C(F)(F)F [Example 358, 2-(2,6-Dichloro-phenylamino)-4-trifluoromethyl-pyrimidine-5-carboxylic acid (2-fluoro-pyridin-4-ylmethyl)-amide]
pEC50 [1]: 6.52 to 7.70

O=C(NCc1ccnc(F)c1)c1cnc(Nc2cccc(Cl)c2Cl)nc1C(F)(F)F [Example 359, 2-(2,3-Dichloro-phenylamino)-4-trifluoromethyl-pyrimidine-5-carboxylic acid (2-fluoro-pyridin-4-ylmethyl)-amide]
pEC50 [1]: 6.52 to 7.70

O=C(NCc1ccnc(F)c1)c1cnc(Nc2ccc(Cl)cc2Cl)nc1C(F)(F)F [Example 360, 2-(2,4-Dichloro-phenylamino)-4-trifluoromethyl-pyrimidine-5-carboxylic acid (2-fluoro-pyridin-4-ylmethyl)-amide]
pEC50 [1]: 6.52 to 7.70

N#Cc1cccc(Nc2ncc(C(=O)NCc3ccccc3)c(C(F)(F)F)n2)c1 [Example 362, 2-(3-Cyano-phenylamino)-4-trifluoromethyl-pyrimidine-5-carboxylic acid benzylamide]
pEC50 [1]: 6.52 to 7.70 | Emax: > 50%

O=C(NCc1ccccc1)c1cnc(Nc2c(Cl)cccc2Cl)nc1C(F)(F)F [Example 363, 2-(2,6-Dichloro-phenylamino)-4-trifluoromethyl-pyrimidine-5-carboxylic acid benzylamide]
pEC50 [1]: 6.52 to 7.70

O=C(NCc1ccc(F)cc1)c1cnc(Nc2cccc(Cl)c2Cl)nc1C(F)(F)F [Example 364, 2-(2,3-Dichloro-phenylamino)-4-trifluoromethyl-pyrimidine-5-carboxylic acid 4-fluoro-benzylamide]
pEC50 [1]: 6.52 to 7.70

O=C(NCc1ccc(F)cc1)c1cnc(Nc2ccc(Cl)cc2Cl)nc1C(F)(F)F [Example 365, 2-(2,4-Dichloro-phenylamino)-4-trifluoromethyl-pyrimidine-5-carboxylic acid 4-fluoro-benzylamide]
pEC50 [1]: 6.52 to 7.70

O=C(NCc1ccc(F)cc1)c1cnc(Nc2cc(Cl)ccc2Cl)nc1C(F)(F)F [Example 366, 2-(2,5-Dichloro-phenylamino)-4-trifluoromethyl-pyrimidine-5-carboxylic acid 4-fluoro-benzylamide]
pEC50 [1]: 6.52 to 7.70

O=C(NCc1ccc(F)cc1)c1cnc(Nc2ccc(Cl)c(Cl)c2)nc1C(F)(F)F [Example 367, 2-(3,4-Dichloro-phenylamino)-4-trifluoromethyl-pyrimidine-5-carboxylic acid 4-fluoro-benzylamide]
pEC50 [1]: 6.52 to 7.70

O=C(NCc1ccc(F)cc1F)c1cnc(Nc2cccc(Cl)c2)nc1C(F)(F)F [Example 368, 2-(3-Chloro-phenylamino)-4-trifluoromethyl-pyrimidine-5-carboxylic acid 2,4-difluoro-benzylamide]
pEC50 [1]: 6.52 to 7.70

O=C(NCc1ccc(F)cc1)c1cnc(Nc2ccc(C(F)(F)F)c(F)c2)nc1C(F)(F)F [Example 369, 2-(3-Fluoro-4-trifluoromethyl-phenylamino)-4-trifluoromethyl-pyrimidine-5-carboxylic acid 4-fluoro-benzylamide]
pEC50 [1]: 6.52 to 7.70
